Paper PMC13316043, “Structural basis of NSD2 degradation via targeted recruitment of SCF-FBXO22” (Nature Communications, 2026)

Experiments:
His-tagged NSD2 PWWP1 = experiment: TR-FRET cooperativity (competition) assay: displacement of biotinylated NSD2 ligand UNC7096; type: binding, human
Text: Because of the direct interactions observed between FBXO22 and NSD2, we hypothesized that some degree of cooperative binding could facilitate complex stabilization. Therefore, we developed a TR-FRET assay to monitor the interaction between his-tagged NSD2 and a biotinylated NSD2 ligand, UNC7096, that is missing the modality for FBXO22-recruitment (Supplementary Fig. 3D)[20]. Given the positive FRET signal observed when both NSD2 PWWP1 and UNC7096 are present, we used this setup to evaluate the displacement of UNC7096 by UNC10088 in the presence or absence of the FBXO22 FIST domain (Supplementary Fig. 3D). […] Importantly, this FBXO22-dependent enhancement of NSD2 antagonism by UNC10088 was absent when C326 was substituted for alanine (Supplementary Fig. 3F). Taken together, the SCF^FBXO22-NSD2 PWWP1 structure both confirms prior results and provides additional insight into the surfaces that contribute to a cooperative interaction between NSD2 and FBXO22 to promote potent NSD2 polyubiquitination and degradation.
The TR-FRET assay was adapted to assess cooperativity from the following workflows previously reported[39],[40]. Assays were performed in white, low-volume, flat-bottom, nonbinding 384-well microplates (Greiner, Catalog No. 784904) with a final assay volume of 10 μL per well. The assay buffer contained 20 mM Tris–HCl (pH 7.5) and 150mM NaCl, 0.05% Tween-20 (v/v), 2mM DTT, and 1% DMSO (v/v). LANCE Europium (Eu)-W8044 Streptavidin conjugate (2 nM) and LANCE Ultra ULight-anti6x-His labeled antibodies (10 nM) were used as donor and acceptor fluorophores associated with the tracer ligand and protein, respectively. Final assay concentrations of 63 nM His-tagged NSD2 PWWP1 and 31 nM of UNC7096 (a biotinylated version of the NSD2 ligand) as a tracer ligand were used for compound testing. UNC8732, UNC10088, and UNC10415667 were diluted in a 10-point, 3-fold serial dilution, and indicated compounds were pre-incubated with FBXO22 FIST for 30 min. A master mix of NSD2 PWWP1, UNC7096, and TR-FRET reagents was made prior to its addition to the compounds and/or FBXO22 FIST. The plates were sealed with metallic covers, mixed gently for 1 min, and incubated in the dark for 1 h. After 1 h, the plate was read on an EnVision 2103 plate reader with a 320 nm excitation filter and 615 nm/ 665 nm emission filters simultaneously with a dual mirror D400/D630 and a 100 μs delay. […] Raw TR-FRET signals were normalized to a high inhibition control (10 μM of UNC10088) and negative control (1% DMSO). The normalized TR-FRET signals were plotted against the compound concentrations. […] Ki values were calculated from the IC50s using the tight-binding model[41],[42]. The cooperativity factor (α) was calculated as the ratio of Ki (Binary)/ Ki (Ternary), with α > 1 indicating positive cooperativity between NSD2 PWWP1 and FBXO22 FIST based on its disruption of NSD2 binding to UNC7096.

U2OS cells = experiment: CellTiter-Glo cell viability assay; type: cell-based, human; conditions: 1 µM, 6 h
Protocol: The cell viability of NSD2 HiBiT U2OS P112 and parental U2OS cell lines treated with NSD2 degrader was determined by the CellTiter-Glo 2.0 Cell Viability Assay (Promega, G9242). 384-well plates (Corning) with cells and the reagent were equilibrated to the room temperature before detection. The reagent was added to the assay plate according to the product instruction and allowed to incubate on an orbital shaker for 3 min at room temperature before subjecting the plate to the GloMax luminometer (Promega). The data and graphs were then analyzed and generated using GraphPad Prism (v 10.4.1)

Compound | fold reduction of IC50 upon addition of FBXO22 (His-tagged NSD2 PWWP1; IC50 alone vs with FBXO22 FIST) | cooperativity factor (α) = Ki (Binary)/Ki (Ternary) (His-tagged NSD2 PWWP1; NSD2 PWWP1 with vs without FBXO22 FIST, with preincubation) | cooperativity factor (α) without preincubation (His-tagged NSD2 PWWP1; compound not preincubated with FBXO22) | cell viability (U2OS cells)
O=C1COc2cc(C(=O)N(Cc3ccc(C(=O)Nc4ccc5c(c4)CCN(C(=O)CCCCC(O)S(=O)(=O)O)C5)cc3)C3CC3)ccc2N1 (stereo not shown) [UNC10088] | about 2.5 fold | 3.3 | 3.1 | –
O=Cc1ccc(C(=O)N2CCc3cc(NC(=O)c4ccc(CN(C(=O)c5ccc6c(c5)OCC(=O)N6)C5CC5)cc4)ccc3C2)cc1 [UNC10415667] | – | – | – | did not impact cell viability
